Laboratory results: paper PMC13021292, “Safety, tolerability and pharmacokinetics of DNDI‐6148, a novel agent for leishmaniasis: A randomized, controlled, single ascending dose study in healthy participants” (British Journal of Clinical Pharmacology, 2025)
Where two headings read alike, the source gives them in different places.

Assays:
[1] = Urinary excretion and renal clearance, single ascending oral dose study; format: in vivo, human; conditions: single oral 10–380 mg
Method: Urine was collected up to 72 h during the following intervals: pre‐dose, D1T0h – D1T12h, D1T12h – D2T24h, D2T24h – D3T48h and D3T48h – D4T72h. Urine was collected in containers containing 20 g citric acid monohydrate and stored at 4 °C for a maximum of 43 h. All urine passed during each interval period was combined and at the end of the interval, the pool of acidified urine was vigorously mixed; two aliquots were prepared, each with 1 mL of acidified urine and 1 mL of aqueous solution of 50 g/L bovine serum albumin (BSA) and 9 g/L NaCl.
Tubes of acidified urine/BSA samples were capped immediately for each time point and stored at −80 °C. Samples of both acidified plasma and acidified urine/BSA were shipped for bioanalysis on dry ice by a specialized carrier. Temperatures were monitored using a data logger during transport.

[2] = Safety and tolerability (adverse events), single ascending oral dose study; format: in vivo, human
Method: The primary endpoint was assessment of the safety and tolerability of DNDI‐6148 by evaluation of the following parameters: adverse events (AEs), physical examination (including body weight), clinical neurological examination, vital signs, 12‐lead ECG, clinical laboratory (including serum chemistry, haematology, hormonology and urinalysis) and psychological and cognitive examinations.
(§1) Safety was assessed by monitoring AEs throughout the study. Other safety monitoring included 12‐lead ECG recordings, measurement of vital signs, physical and neurological examinations, haematology, blood biochemistry and urinalysis and, for the last four participants of the 160 mg cohort and onwards, CRP and TNFα.
To minimize risk, participants were dosed sequentially, using sentinels in each cohort (one receiving DNDI‐6148, one placebo), as per European Medicines Agency guidelines.[12] Stopping criteria used in that study are described in Supplementary Information, Text S2. If the previous dose was well tolerated, with no safety concerns, the Safety Review Committee decided on dose escalation after reviewing blinded safety and PK data from all available cohorts.

[3] = Cardiac safety: ECG QTcF, QTcG, heart rate; format: in vivo, human
Method: as §1
Triplicate ECGs extracted from 24-hour Holter recordings at predefined time points aligned with the pharmacokinetic (PK) sampling were used for additional cardiac safety analyses. […] For the group correction, α was estimated as the slope of the linear relationship between ln(QT) and ln(RR), based on drug-free (placebo and pre-dose) data (Figure S1).

[4] = Plasma CRP and TNFα pre- and post-dose (exploratory inflammation markers); format: in vivo, human; parameters: CRP plasma concentration, Mean / TNFα plasma concentration, Mean: unit not given here; conditions: for CRP change from pre-dose, Mean / CRP change from pre-dose, Median / CRP plasma concentration, Mean / CRP plasma concentration, Median / TNFα change from pre-dose, Mean / TNFα plasma concentration, Mean / TNFα plasma concentration, Median / TNFα change from pre-dose, Median: 6 h post-dose (D1-T6H)
Description: Recruitment was temporarily interrupted on 16 March 2020 due to confinement measures related to the COVID‐19 outbreak in France. The study resumed on 17 August 2020, allowing for the completion of recruitment for cohorts 2, 3 and 4. Additionally, four participants were included in cohort 5 before suspension of the investigational product (IP) administration on 30 January 2021 as a precaution to assess emerging unexpected data in a non‐clinical Fertility and Early Embryonic Development study. The protocol was further amended to include evaluation of plasma concentrations of C‐reactive protein (CRP) and of tumour necrosis factor alpha (TNFα) pre and post‐dose (6 h) as exploratory markers of possible inflammation. Subsequent cohorts were completed up to the 380 mg dose level (cohort 8) without further interruption of the study.
Exploratory endpoints included ECG parameters compared to baseline and placebo; the exploratory identification of DNDI‐6148 metabolites; and, for the last four participants of the 160 mg cohort and the 220 mg, 300 mg and 380 mg cohorts, the exploratory evaluation of plasma concentrations of CRP and TNFα pre‐ and post‐dose.
as §1

[5] = human, in vivo, po, 220 mg
Method: (§2) This was a FIH, phase I, double‐blind, parallel, single ascending dose (SAD) study of DNDI‐6148 arginine monohydrate, administered as an oral suspension to healthy male participants. Cohorts 1–8 each included eight participants and were administered 10, 20, 40, 80, 160, 220, 300 or 380 mg (free form) of DNDI‐6148 (in six participants) or placebo (two participants).
(§3) At the clinical site, a suspension was prepared extemporaneously by the pharmacist within 24 h prior to administration to participants (the timepoint for which stability data of the suspension were available). The IP powder was suspended in 30 mL ORA‐Sweet® (Paddock Laboratories, LLC, Minneapolis, USA) for taste and colour masking. Participants were administered between 4 and 25 mL of the suspensions, followed by the ingestion of 250 mL tap water. Opaque precision syringes were used to administer the solutions to minimize the risk of unblinding. To preclude any dietary effects on the PK of DNDI‐6148, participants fasted for 9 h before they received the IP or placebo. Treatments were administered under the supervision of the investigator at approximately 8 a.m. on Day 1.
(§4) Blood samples (6 mL per time point) for pharmacokinetic analyses were collected on Day 1 pre‐dose and at the following post‐dose time points: 0.5,1, 1.5 (cohorts 1–4 only), 2, 2.5, 3, 4, 5 (cohorts 5–8 only), 6, 9, 12, 24, 48 and 72 h. […] Within 30 min of blood collection, blood samples were centrifuged at 1500g for 10 min at 4 °C and 500 μL of plasma were transferred into pre‐labelled polypropylene tubes prefilled with phosphoric acid 2% (1:1, v:v). Tubes were capped immediately for each time point, and the plasma was frozen in an upright position at −80 °C for storage.
(§5) Concentrations of DNDI‐6148 were determined in acidified plasma and acidified urine/BSA mixture using a validated internally standardized liquid chromatography–tandem mass spectrometry (LC–MS/MS) assay with deuterated d4‐DNDI‐6148 as an internal standard. The lower limit of quantitation (LOQ) for DNDI‐6148 was 1 ng/mL in plasma and 10 ng/mL in urine.
(§6) Values that were below the LOQ before the first concentration equal or above LOQ were set to zero. Other values below the LOQ were not used to calculate the PK parameters. The area under the plasma concentration‐time curve from time zero (pre‐dose) to the time of last quantifiable concentration (AUC0‐last) was calculated using the linear‐log trapezoidal rule. Elimination half‐life (t1/2) was calculated by the equation ln2/λz, after visual inspection of the plasma concentration‐time profiles (considering a minimum of 3 data points, including the last measurable data point and excluding Cmax).
(§7) PK parameters were derived from plasma concentration vs. time data using non‐compartmental analysis in Phoenix WinNonlin® 8.1 (Certara Inc., Princeton, NJ, USA). Plasma concentration vs. time data and PK parameters were listed and summarized by dose level, using descriptive statistics. Mean concentrations were calculated only if at least ⅔ of the individual concentrations were above the lower LOQ (LLOQ). […] Planned sampling times were used to summarize plasma concentration data; actual sampling times were used in the derivation of PK parameters.

L. donovani [6] = conditions: cited from earlier work
L. infantum [7] = conditions: cited from earlier work
L. infantum [8] = conditions: 25 mg/kg BID for five or ten days; cited from earlier work
L. donovani [9] = conditions: 25 mg/kg BID for five days, oral; cited from earlier work
L. infantum [10] = conditions: 25 mg/kg BID for five days, oral; cited from earlier work
[11] = cited from earlier work
[12] = at 1 μM; cited from earlier work
[13] = pH 7.4; cited from earlier work
[14] = parameters: method as in unpublished data; conditions: non‐clinical studies ref unpublished data; cited from earlier work
[15] = cited from earlier work; remark: listed apart in the source
[16] = Plasma pharmacokinetics, first-in-human single ascending oral dose study; conditions: 10 mg single oral dose
Method: as §2, §3, §4, §5, §6, §7

Cc1c(C(=O)Nc2ccc3c(c2)B(O)OC3)nnn1-c1ccccn1 [DNDI‐6148]
fraction of the dose excreted by the kidneys as unchanged drug [1]: below 0.2% | TEAE Musculoskeletal and connective tissue disorders, participants n (%) [events] ([2]; 10 mg (N = 6)): 0 | TEAE Musculoskeletal and connective tissue disorders, participants n (%) [events] ([2]; 80 mg (N = 6)): 0 | TEAE Musculoskeletal and connective tissue disorders, participants n (%) [events] ([2]; 160 mg (N = 6)): 0 | TEAE Musculoskeletal and connective tissue disorders, participants n (%) [events] ([2]; 220 mg (N = 6)): 0 | TEAE Musculoskeletal and connective tissue disorders, participants n (%) [events] ([2]; 380 mg (N = 6)): 0 | TEAEs (events) ([2]; in vivo): 10 | participants with TEAEs ([2]; in vivo): 8 | participants with TEAEs, percentage ([2]; in vivo): 14.3% | maximal tolerated dose ([2]; single doses 10–380 mg): not reached | largest mean ΔΔQTcG ([3]; 160 mg, 12 h post-dose): 7.24 ms | mean ΔΔQTcG ([3]; 380 mg, 9 h post-dose): 1.83 ms | QTcG changes from baseline ([3]; all doses): ≤ 30 ms | QTcG values ([3]; all doses): ≤ 450 ms | QTcF value >500 msec or change from baseline QTcF >60 msec ([3]; any participant): No QTcF value >500 msec or change from baseline QTcF >60 msec was recorded | upper limit of the 90% CI of ΔΔQTcF ([3]; any single dose, concentration‐response modelling): ≤ 10 ms | maximum effect on ΔΔQTcF, estimated ([3]; dose of 380 mg, concentration‐response modelling): 1.65 (90% CI: −0.635, 3.94) msec | CRP change from pre-dose, Mean ([4]; 160 mg, n 3): -0.03 | CRP change from pre-dose, Median ([4]; 160 mg, n 3): 0.00 | CRP plasma concentration, Mean ([4]; 160 mg, n 3): 0.80 | CRP plasma concentration, Median ([4]; 160 mg, n 3): 0.60 | TNFα change from pre-dose, Mean ([4]; 160 mg, n 3): 0.15 | TNFα plasma concentration, Mean ([4]; 160 mg, n 3): 2.55 | TNFα plasma concentration, Median ([4]; 160 mg, n 3): 2.58 | CRP change from pre-dose, Mean ([4]; 220 mg, n 6): -0.03 | CRP change from pre-dose, Median ([4]; 220 mg, n 6): 0.00 | CRP plasma concentration, Mean ([4]; 220 mg, n 6): 0.72 | CRP plasma concentration, Median ([4]; 220 mg, n 6): 0.60 | TNFα change from pre-dose, Mean ([4]; 220 mg, n 6): -19.68 | TNFα change from pre-dose, Median ([4]; 220 mg, n 6): -15.26 | TNFα plasma concentration, Mean ([4]; 220 mg, n 6): 1.77 | TNFα plasma concentration, Median ([4]; 220 mg, n 6): 1.74 | CRP change from pre-dose, Mean ([4]; 300 mg, n 6): -0.13 | CRP change from pre-dose, Median ([4]; 300 mg, n 6): -0.15 | CRP plasma concentration, Mean ([4]; 300 mg, n 6): 2.47 | CRP plasma concentration, Median ([4]; 300 mg, n 6): 1.15 | TNFα change from pre-dose, Mean ([4]; 300 mg, n 6): -0.37 | TNFα change from pre-dose, Median ([4]; 300 mg, n 6): 0.18 | TNFα plasma concentration, Mean ([4]; 300 mg, n 6): 2.67 | TNFα plasma concentration, Median ([4]; 300 mg, n 6): 2.62 | TNFα change from pre-dose, Mean ([4]; 380 mg, n 4): 0.33 | TNFα change from pre-dose, Median ([4]; 380 mg, n 4): 0.32 | TNFα plasma concentration, Mean ([4]; 380 mg, n 4): 2.82 | TNFα plasma concentration, Median ([4]; 380 mg, n 4): 2.75 | CRP change from pre-dose, Mean ([4]; 380 mg, n 6): -0.02 | CRP change from pre-dose, Median ([4]; 380 mg, n 6): 0.00 | CRP plasma concentration, Mean ([4]; 380 mg, n 6): 0.87 | CRP plasma concentration, Median ([4]; 380 mg, n 6): 0.60 | plasma CRP and TNFα concentrations post‐dose compared with pre‐dose ([4]; last four participants of 160 mg cohort and 220–380 mg cohorts): not significantly increased | CL/F [5]: 2.55 L/h | in vitro activity against L. donovani (L. donovani [6]): in the micromolar range | in vitro activity against L. infantum (L. infantum [7]): in the micromolar range | efficacy by oral route in L. infantum hamster model of VL (L. infantum [8]): demonstrated efficacy | efficacy in L. donovani mouse model of VL (L. donovani [9]): demonstrated efficacy | efficacy in L. infantum mouse model of VL (L. infantum [10]): demonstrated efficacy | unbound fraction in plasma ([11]; humans): 6.6% | plasma protein binding (bound) ([11]; species not stated): over 93% | CLint in hepatocytes [12]: 0.5 μL/min/10^6 cells | logD [13]: 1.92 | blood–brain barrier crossing [14]: cross the blood–brain barrier | CLint in human liver microsomes [15]: below 0.3 μL/min/mg | CL/F ([16]; GM): 2.89 L/h | Cmax ([16]; GM): 155 ng/mL | Vd/F ([16]; GM): 52.89 L | t1/2 ([16]; GM): 12.7 h | CL/F ([16]; Mean): 2.97 L/h | Cmax ([16]; Mean): 156 ng/mL | Vd/F ([16]; Mean): 53.52 L
